Experimental data as given in patent US20220339141A1, “COMBINATION TREATMENT WITH A P53 REACTIVATOR AND AN INHIBITOR OF AN ANTIAPOPTOTIC BCL-2 FAMILY PROTEIN” (Aprea Therapeutics AB, priority 2019, published 2022).
Read-outs that look alike come from different tables or passages of the source.

Tests used:
HL-60 = assay: CellTiter-Glo cell viability, 72 h, single agents and combination dose matrix; format: cell-based; settings: Homo sapiens
Experimental: (§1) For cell lines KBM3, KG-1 and HL-60: IMEM (Sigma Cat. no. I3390), 20% FBS (Sigma Cat. no. F084) and 1% L-glutamine (Sigma, Cat.no. G7513).
(§2) 75 cm^2 flask (100% confluent) cells was transfer to a 15 ml tube and centrifuged at 1000 RPM for 5 min. Then supernatant was discarded, and cell pellet was resuspended in 6 ml medium. The cells were counted in the TC20 automated cell counter. 10 ml cell culture medium was prepared with 60,000 cells/ml, corresponding to 3,000 cells when 50 μl is seeded out (for MOLM-13, 12,000 cells were used). Cells were seeded in 96-well plates in column 2-12, row B-G, for blank, 100 μL cell culture medium was added. Plates were incubated overnight at 37° C.
(§3) Combenefit 2.021 was used for data analysis.
(§4) The CellTiter-Glo® Luminescent Cell Viability Assay is a homogeneous method of determining the number of viable cells in culture based on quantitation of the ATP present, an indicator of metabolically active cells. The homogeneous assay procedure involves adding the single reagent (CellTiter-Glo® Reagent) directly to cells cultured in serum-supplemented medium. The homogeneous “add-mix-measure” format results in cell lysis and generation of a luminescent signal proportional to the amount of ATP present. The amount of ATP is directly proportional to the number of cells present in culture.
(§5) The experimental dose-response surface that delineates combination effects in concentration space, is first read by the Combenefit software as a matrix of % of the control value across concentrations. […] Based on the two single agent dose response curves, a model-based combination dose-response surface is derived. This surface provides a “reference” dose-response surface for a non-synergistic (additive/independent) combination, whose characteristics are determined by the selected model (i.e., Loewe, Bliss or HSA). The experimental combination dose response surface is then compared to the model-generated one, resulting in a synergy distribution in concentration space.
(§6) This synergy distribution can be further summarized via various metrics (Di Veroli. C, Bioinformatics, 32(18), 2016, 2866-2868) as follows: • SYN_MAX—the maximum level of synergy observed. • SYN_SUM—the sum of synergy observed in concentration logarithmic space. For instance, an integrated synergy of 50 is equivalent to an extra synergistic effect of 50% which is spread over a square of 1 log×1 log in the 2-d log-concentration space.

KBM-3 = assay: as above; format: cell-based
Experimental: as §1, §2, §3, §4, §5, §6

KG-1 = assay: as above; format: cell-based; settings: Homo sapiens
Experimental: as §1, §2, §3, §4, §5, §6

AML cell lines [1] = assay: CellTiter-Glo cell viability, results summarised over the cell line panel; settings: for IC50: read-out: IC50 values, range over cell lines
Experimental: (§7) Plates was taken from the incubator to reach room temperature about 30 min. 100 μL CellTiter-Glo was added to all wells (except edge wells). Plates were then shaken on a plate shaker for 3 minutes at room temperature; thereafter the plates were set for 10 min at room temperature to allow cell lysis to appear. The luminescence was measured using the PerkinElmer Victor×4 instrument using the built-in program according to Instruction 11. Combenefit 2.021 was used for data analysis.
(§8) For IC50 determinations, the serial dilution of compounds was performed in cell culture medium based on 1.5- or 2-fold dilution factor. The serially diluted compounds were added to the cells and incubated for 72 h followed by cell viability test using the CTG assay. For each concentration, the current viability values were calculated and IC50 values were determined by XLfit software version 5.5.0.5 (a Microsoft Excel-based plug-in to perform regression, curve fitting and statistical analysis).
(§9) Combenefit performs combination analyses using the standard Loewe, Bliss and HSA methods. In the HSA model, the synergy score quantifies the excess over the highest single drug response. In the Loewe model, the synergy score quantifies the excess over the expected response if the two drugs are the same compound.
(§10) A “combination index” (CI) is then calculated as the measured cell viability of the sample with two co-incubated substances divided by the predicted cell viability.
(§11) If the measured cell viability for a combination of two substances is higher than the cell viability for one or both substances, the effect is considered antagonistic. If the predicted viability is very low, the quote “measured viability/predicted viability” may give false CI values.

MV4-11 = assay: CellTiter-Glo cell viability, 72 h, single agents and combination dose matrix; format: cell-based; settings: Homo sapiens
Experimental: For MV4-11: IMEM (Sigma Cat. no. I3390), 10% FBS (Sigma Cat. no. F084) and 1% L-glutamine (Sigma, Cat.no. G7513).
as §2, §3, §4, §5, §6

MOLM-13 = assay: as above; format: cell-based; settings: Homo sapiens, MOLM-13, 72 h, single agent
Experimental: For MOLM-13, RPMI (R8758, Sigma Aldrich)+10% FBS (F0804, Sigma Aldrich), heat inactivated at 56° C. for 60 min.
as §2, §3, §4, §5, §6

SKM-1 = assay: as above; format: cell-based; settings: single agent
Experimental: For SKM-1, RPMI (R8758, Sigma Aldrich)+20% FBS (F0804, Sigma Aldrich), heat inactivated at 56° C. for 60 min.
as §2, §3, §4
The experimental dose-response surface that delineates combination effects in concentration space, is first read by the Combenefit software as a matrix of % of the control value across concentrations. […] Based on the two single agent dose response curves, a model-based combination dose-response surface is derived. This surface provides a “reference” dose-response surface for a non-synergistic (additive/independent) combination, whose characteristics are determined by the selected model (i.e., Loewe, Bliss or HSA). The experimental combination dose response surface is then compared to the model-generated one, resulting in a synergy distribution in concentration space. […]

AML cell lines [2] = tested on: AML cell lines
Experimental: as §7, §8, §9, §10, §11

[3] = HL-60 (AML, p53 Null (deletion)), single agent
[4] = KBM-3 (AML, p53 WT), single agent
[5] = KG-1 (AML, p53 Intron6/splice), single agent
[6] = MV4-11 (AML, p53 R248W), single agent
[7] = Homo sapiens, SKM-1 (MDS, p53 R248Q)
[8] = MOLM-13 (AML, p53 WT), separate study of Example 3

| Compound | IC50 (HL-60; HL-60, single agent, Example 4) [nM] | IC50 (KBM-3; KBM-3, single agent, Example 4) [nM] | IC50 (KG-1; KG-1, single agent, Example 4) [nM] | single agent anti-proliferative activity (AML cell lines [1]) | IC50 (AML cell lines [1]) [nM] | IC50 (MV4-11; MV4-11, single agent, Example 4) [nM] | IC50 (MOLM-13; MOLM-13, Example 4) [nM] | IC50 (HL-60; [3]) [nM] | IC50 (KBM-3; [4]) [nM] | IC50 (KG-1; [5]) [nM] | single agent cytotoxic activity (AML cell lines [1]; MOLM-13 and SKM-1) | IC50 (AML cell lines [1]; single agent, cell lines of Table 3) [nM] | IC50 (MV4-11; [6]) [nM] | IC50 (SKM-1; [7]) [nM] | IC50 (MOLM-13; MOLM-13 (AML, p53 WT)) [nM] | IC50 (MOLM-13; [8]) [nM] | single agent cytotoxic activity (AML cell lines [2]) | IC50 (KBM-3; KBM-3, single agent, Example 3) [nM] | IC50 (MV4-11; MV4-11, single agent, Example 3) [nM] | IC50 (SKM-1; SKM-1 (MDS/AML, p53 R248Q homo/hemizygous), separate study of Example 3) [nM] |
| --- | --- | --- | --- | --- | --- | --- | --- | --- | --- | --- | --- | --- | --- | --- | --- | --- | --- | --- | --- | --- |
| COc1ccccc1-c1nccc(COc2ccccc2CC(Oc2ncnc3sc(-c4ccc(F)cc4)c(-c4ccc(OCCN5CCN(C)CC5)c(Cl)c4C)c23)C(=O)O)n1 (stereo in doubt) [MIK665, (R)-2-((5-(3-chloro-2-methyl-4-(2-(4-methylpiperazin-1-yl)ethoxy)phenyl)-6-(4-fluorophenyl)thieno[2,3-d]pyrimidin-4-yl)oxy)-3-(2-((2-(2-methoxyphenyl)pyrimidin-4-yl)methoxy)phenyl)propanoic acid] | 7 | 40 | 600 | dose-dependent anti-proliferative activity | 1 to 600 | 1.4 | 2 | – | – | – | – | – | – | – | – | – | – | – | – | – |
| CC1(C)CCC(CN2CCN(c3ccc(C(=O)NS(=O)(=O)c4ccc(NCC5CCOCC5)c([N+](=O)[O-])c4)c(Oc4cnc5[nH]ccc5c4)c3)CC2)=C(c2ccc(Cl)cc2)C1 [ABT-199, 2-(1H-pyrrolo[2,3-b]pyridin-5-yloxy)-4-(4-((2-(4-chlorophenyl)-4,4-dimethylcyclohex-1-enyl)methyl)piperazin-1-yl)-N-(3-nitro-4-(((tetrahydro-2H-pyran-4-yl)methyl)amino)phenylsulfonyl)benzamide] | – | – | – | dose-dependent anti-proliferative activity | – | – | – | 60 | 1360 | 1500 | dose-dependent cytotoxic activity | 1 to 1500 | 160 | 70 | 1 | 1.4 | – | – | – | – |
| COCC1(CO)C(=O)C2CCN1CC2 (stereo not drawn) [APR-246, 2-(hydroxymethyl)-2-(methoxymethyl)quinuclidin-3-one] | – | – | – | dose-dependent anti-proliferative activity | 1000 to 11000 | – | – | 8100 | 3700 | 11000 | – | – | 2500 | 1090 | 9500 | – | – | – | – | – |
| O=C1C2CCN(CC2)C1CNC(=O)C(F)(F)F (stereo not drawn) [Compound A, 2,2,2-trifluoro-N-((3-oxoquinuclidin-2-yl)methyl)acetamide] | – | – | – | – | – | – | – | – | – | – | – | – | – | – | – | 3600 | dose-dependent cytotoxic activity | 1700 | 1000 | 660 |
